Experimental data taken from patent US11466020B2, “Compounds and compositions for inhibition and elimination of Zika infection and uses for same” (Cornell University, priority 2017, dated 2022).
Entries after “also recorded” stand apart in the source; their conditions may differ. Counter-ions that a name gives are not always drawn.

Columns and labels:
[1] = system: ZIKV (FSS13025 strain); experiment: qRT-PCR of total and (-) strand vRNA in hNPCs treated 48 h post-infection (FSS13025); type: cell-based, Zika virus; settings: treatment at 48 h post-infection, 25 μM, additional 3 days
Description: (A and B) Inhibitory curve and IC50 of AQ were calculated based on the infection rate (A) and normalized cell viability (B) (n=6). (C and D) Immunocytochemistry analysis (C) and quantification of infection rate and total cell number (D) of hNPCs after ZIKV infection treated with 15 μM AQ or DMSO or mock infection (n=3). Cells were fixed and stained for ZIKV E and with DAPI. Scale bars, 100 μm. p values were calculated by unpaired two-tailed Student's t-test. *p<0.05, and ***p<0.001. (E) qRT-PCR analysis of total and replicating (−) strand of ZIKV (MR 766 strain) vRNA level in hNPCs from two additional donors. hNPCs from different donors were treated with 25 μM HH at 24 h post-infection. (F) The expression dynamics of ZIKV vRNA (FSS13025 strain) in hNPCs. qRT-PCR analysis to quantify the total and replicating (−) strand ZIKV vRNA levels in hNPCs at different time points post-infection. […] (G) qRT-PCR analysis of hNPCs that were treated with 25 μM HH or DMSO at 48 h post-ZIKV (FSS13025 strain) infection and maintained for additional 3 days. p values were calculated by unpaired two-tailed Student's t-test. *p<0.05, **p<0.01 and ***p<0.001, unless otherwise stated. […]
RNA Extraction and qRT-PCR. […] ZIKV vRNA levels were calculated using a standard curve generated using serial 10-fold dilutions of ZIKV vRNA.

[2] = system: ZIKV MR766 virus strain; experiment: Prophylactic treatment of ZIKV infected SCID-Beige mice; type: in vivo
Description: (A) Scheme of prophylactic treatment of HH in vivo. HH was administrated to SCID-Beige mice 12 h before infection with MR766 virus strain. HH was injected at a dose of 100 mg/kg/day subcutaneously and euthanized at day 7. (B) qRT-PCR analysis of total ZIKV vRNA in liver, spleen, kidney and brain of ZIKV infected mice. n=12 for liver, spleen and kidney and 20 for brain. (C) qRT-PCR analysis of total ZIKV vRNA in brains of ZIKV-infected mice treated with vehicle (n=14) or HH (n=8). […] (D-F) Immunohistochemical analysis of adult cortex. […] Scale bar=100 μm in (D) and 10 μm in (E, F). (G-I) Immunohistochemical analysis of adult hippocampus. […] Scale bar=100 μm in (G) and 10 μm in (H, I). (J-L) Immunohistochemical analysis of adult striatum. […] Scale bar=100 μm in (J) and 10 μm in (K, L). (M, N) Immunohistochemical analysis of cellular apoptosis in adult cortex. […] Scale bar=100 μm in (M) and 10 μm in (N). (O, P) Expression kinetics of total vRNA (O) and (−) strand vRNA (P) of ZIKV (MR766 strain) in mouse brain. N is larger or equal to 4 mice at each time points. The mice were inoculated with (1×10^6 PFU) through intraperitoneal injection. The mice were euthanized at 12 h, 24 h, 3 days, 4 days and 5 days post-infection. (Q) Scheme of therapeutic treatment of HH on ZIKV (MR766 strain) infected mice. The SCID-beige mice were infected with ZIKV (MR766 strain, 1×10^6 PFU). The mice at 5 days post-infection were treated with 100 mg/kg HH or vehicle daily for 5 days. The mice were then euthanized and RNA from brains was analyzed using qRT-PCR. (R, S) qRT-PCR analysis of total vRNA (R) and (−) strand RNA (S) in the brains of mice treated with vehicle (n=8) or HH (n=8) at day 5 post-infection. (T, U) Expression kinetics of total vRNA (N) and (−) strand vRNA (O) of ZIKV (FSS13025 strain) in mouse brain. N is larger or equal to 4 mice at each time points. The mice were inoculated with (3×10^6 PFU) through intraperitoneal injection. The mice were euthanized at 12 h, 24 h, 3 days, 5 days and 7 days post-infection. (V) Scheme of therapeutic treatment of HH on ZIKV (FSS13025 strain) infected mice. The SCID-beige mice were infected with ZIKV (FSS13025 strain, 3×10^6 PFU). The mice at 7 days post-infection were treated with 100 mg/kg HH or vehicle daily for 7 days. The mice were euthanized after 7 days treatment and RNA from brains was analyzed using qRT-PCR. (W, X) qRT-PCR analysis of total vRNA (W) and (−) strand RNA (X) in the brains of mice treated with vehicle (n=8) or HH (n=11) at day 7 post-infection. p values were calculated by one-way repeated measures ANOVA or two-way repeated measures ANOVA with a Bonferroni test for multiple comparisons. *p<0.05, **p<0.01 and ***p<0.001.
PBS, the solvent used to dissolve both compounds, was used as vehicle control.
The mice were euthanized at day 7 post-infection. Total ZIKV vRNA was then quantified in multiple organs of ZIKV-infected mice treated with vehicle, including liver, spleen, kidney and brain (FIG. 4B).
The immunohistochemical analysis of mouse tissues was performed on cryosections. In brief, the tissues were fixed overnight with 4% PFA at 4° C., embedded in OCT, and then sectioned at 30 μm for immunostaining. The primary and secondary antibodies were used as described above.
Adult mouse infection and in vivo drug testing. 6-8 week old female SCID-Beige mice were infected with ZIKV (2.5×10^5 PFU in 0.5 ml culture fluid) through intraperitoneal injection.

[3] = HH 100 mg/kg/day subcutaneously, hydrobromide

CN1CCC2=C[C@H](O)[C@H]3OC(=O)c4cc5c(cc4[C@H]3[C@@H]21)OCO5 [HH, hippeastrine hydrobromide]
total and replicating (-) strand ZIKV vRNAs in hNPCs (FSS13025) [1]: completely suppressed
ZIKV vRNA in brain ([2]; HH 100 mg/kg/day subcutaneously from 12 h before infection, day 7 post-infection): significantly lower level
ZIKV infection of adult cortex (immunohistochemistry) [2, 3]: fully inhibits infection of adult cortex; also recorded: completely inhibited
ZIKV infection of adult hippocampus (immunohistochemistry) [2, 3]: completely inhibits infection of the adult hippocampus; also recorded: completely inhibited
ZIKV infection of adult striatum (immunohistochemistry) [2, 3]: fully inhibits infection of the adult striatum; also recorded: completely inhibited
cellular apoptosis (CAS3) associated with ZIKV infection in the cortex [2, 3]: rescues cellular apoptosis; also recorded: completely inhibited
